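Results reflect a 48-hour exposure of cells in 96-well plates to compound at five concentrations. GI50 = concentration required for 50% inhibition of growth. TGI is the concentration that stops growth completely.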

Test systems include 786-0 renal; A549 NSCLC; ACHN renal; COLO 205 colon; HT29 colon; MDA-MB-231 breast; NCI-H226 lung; NCI-H460 lung; OVCAR-5 ovarian; T-47D breast.
Holding throughout (experiment): NCI tumour cell line growth inhibition, 48 h

`O=C(NCCCNC(=O)OCc1ccc2c(Br)cc(Br)c(O)c2n1)OCc1ccc2c(Br)cc(Br)c(O)c2n1`: the GI50 with 786-0 renal, in the experiment on A549 NSCLC, in the experiment on ACHN renal, in the experiment on COLO 205 colon, in the experiment on HT29 colon and in the experiment on MDA-MB-231 breast was above 100 µM in each case. Besides, the GI50 in the experiment on NCI-H226 lung, in the experiment on NCI-H460 lung, in the experiment with OVCAR-5 ovarian and in the experiment on T-47D breast was above 100 µM each time. Also, the TGI in the experiment with 786-0 renal, with A549 NSCLC, with ACHN renal, in the experiment with COLO 205 colon, in the experiment with HT29 colon and in the experiment on MDA-MB-231 breast was above 100 µM each time. The TGI with NCI-H226 lung, in the experiment with NCI-H460 lung, with OVCAR-5 ovarian and in the experiment on T-47D breast was above 100 µM each time.

For the compound `O=C(O)C(Br)C(Br)c1ccccc1[N+](=O)[O-]` (stereo not given), the TGI with 786-0 renal, in the experiment with A549 NSCLC, in the experiment with ACHN renal, with COLO 205 colon, with HT29 colon and in the experiment on MDA-MB-231 breast was above 100 µM in each case. Further, the TGI in the experiment with NCI-H226 lung, in the experiment on NCI-H460 lung, in the experiment on OVCAR-5 ovarian and in the experiment with T-47D breast was above 100 µM throughout.

With `CCOC(=O)CNC(=O)CCCn1c(=O)c2c3ccccc3n(C)c2n2nnc(-c3ccccc3)c12`, the GI50 in the experiment on 786-0 renal is 5.13 µM; in the experiment with A549 NSCLC, 32.8 µM; with ACHN renal it was 9.24 µM; in the experiment with COLO 205 colon it was above 50 µM; in the experiment with HT29 colon, above 50 µM; with MDA-MB-231 breast, 14.7 µM. In addition, the GI50 in the experiment with NCI-H226 lung was 25.1 µM; in the experiment with NCI-H460 lung, above 50 µM; in the experiment on OVCAR-5 ovarian, 27.7 µM; in the experiment on T-47D breast, 43.9 µM. For the same compound, the TGI in the experiment with 786-0 renal was 17.4 µM; in the experiment on A549 NSCLC, above 50 µM; in the experiment with ACHN renal it was 33.7 µM; in the experiment on COLO 205 colon it was above 50 µM; with HT29 colon, above 50 µM; in the experiment with MDA-MB-231 breast, 31 µM. For the same compound, the TGI with NCI-H226 lung, with NCI-H460 lung, with OVCAR-5 ovarian and in the experiment with T-47D breast was above 50 µM each time.

`O=C(O)c1ccc(S(=O)(=O)N=Nc2c(O)[nH]c3ccccc23)cc1`: the TGI with 786-0 renal, in the experiment on A549 NSCLC, in the experiment on ACHN renal, in the experiment with COLO 205 colon, in the experiment with HT29 colon and with MDA-MB-231 breast was above 100 µM throughout. In addition, the TGI with NCI-H226 lung, in the experiment on NCI-H460 lung, with OVCAR-5 ovarian and with T-47D breast was above 100 µM each time.

In the case of `CCCCCCNC(=O)Oc1ccc(/C(=C(\C)c2ccccc2)c2ccc(OCCN3CCCCC3)cc2)cc1`, the GI50 with 786-0 renal is 1.69 µM; in the experiment on A549 NSCLC, 4.31 µM; with ACHN renal, 2.85 µM; in the experiment with COLO 205 colon, 1.78 µM; with HT29 colon it was 1.38 µM; in the experiment on MDA-MB-231 breast it was 2.09 µM. Also, the GI50 with NCI-H226 lung is 5.91 µM; in the experiment with NCI-H460 lung, 2.05 µM; in the experiment on OVCAR-5 ovarian it was 9.75 µM; in the experiment on T-47D breast it was 1.14 µM. In addition, the TGI with 786-0 renal turned out to be 3.12 µM; with A549 NSCLC, 18.6 µM; in the experiment with ACHN renal it was 10.9 µM; in the experiment on COLO 205 colon it was 3.57 µM; in the experiment with HT29 colon, 3.89 µM; in the experiment on MDA-MB-231 breast it was 4.96 µM. Besides, the TGI with NCI-H226 lung was 21.4 µM; in the experiment with NCI-H460 lung, 4.35 µM; in the experiment with OVCAR-5 ovarian it was 24.1 µM; in the experiment on T-47D breast it was 4.87 µM.

With `CCOC(=O)c1cc2cc(NC(=O)c3cc4cc([N+](=O)[O-])ccc4n3C)ccc2n1C`, the GI50 in the experiment on 786-0 renal is 17.6 µM; in the experiment on A549 NSCLC it was 21.7 µM; in the experiment on ACHN renal, 13.5 µM; in the experiment on COLO 205 colon it was 76.5 µM; in the experiment on HT29 colon, 24.9 µM; in the experiment with MDA-MB-231 breast it was 2.69 µM. Further, the GI50 with NCI-H226 lung is 12 µM; in the experiment with NCI-H460 lung it was 30.6 µM; with OVCAR-5 ovarian, 21.7 µM; in the experiment with T-47D breast, 42 µM. The TGI in the experiment on 786-0 renal was 31.9 µM; in the experiment on A549 NSCLC, 55.6 µM; with ACHN renal, 31.9 µM; in the experiment on COLO 205 colon, above 100 µM; with HT29 colon, above 100 µM; in the experiment on MDA-MB-231 breast, 16.3 µM. Also, the TGI is 46.6 µM with NCI-H226 lung, above 100 µM with NCI-H460 lung, 61.9 µM in the experiment with OVCAR-5 ovarian and above 100 µM in the experiment with T-47D breast.

The record behind these values is PubChem BioAssay (NCI).
